# Literature values as cited in paper PMC3738054 (Journal of immunology (Baltimore, Md. : 1950), 2013).
# Tested on: cerebral malaria
# Conditions: oral inhibitor, murine model of cerebral malaria
compound,measurement,value
c1cc(-c2nc3ccc(OCCCN4CCCC4)cc3o2)ccc1OCCCN1CCCC1 [E6446],efficacy in mitigating inflammatory injury,has shown efficacy
